Results: ChEMBL document CHEMBL5226337, “Pyrazolopyrimidines as anticancer agents: A review on structural and target-based approaches” (Eur J Med Chem, 2021)
≈ marks a conversion by molar mass, not a printed value.

Tests used:
[1] = test system: Maver1; assay: cells; conditions: Homo sapiens, Maver1, 72 h
Description: Anticancer activity against human MAVER-1 cells assessed as inhibition of cell proliferation measured after 72 hrs by Cell Titer-Glo Luminescent

[2] = test system: HCT-116; assay: Anticancer activity against human HCT-116 cells assessed as inhibition of cell proliferation measured after 48 hrs by MTT assay; type: functional, cell-based; conditions: HCT-116, 48 h
[3] = test system: HeLa; assay: Anticancer activity against human HeLa cells assessed as inhibition of cell proliferation measured after 24 hrs by MTT assay; type: functional, cell-based
[4] = test system: MCF7; assay: Anticancer activity against human MCF7 cells assessed as inhibition of cell proliferation measured after 24 hrs by MTT assay; type: functional, cell-based; conditions: MCF7, 24 h
[5] = test system: HepG2; assay: Anticancer activity against human HepG2 cells assessed as inhibition of cell proliferation measured after 16 hrs by MTT assay; type: functional, cell-based; conditions: HepG2, 16 h
[6] = test system: HT-29; assay: Anticancer activity against human HT-29 cells assessed as inhibition of cell proliferation measured after 16 hrs by MTT assay; type: functional, cell-based; conditions: HT-29, 16 h
[7] = test system: KB; assay: Anticancer activity against human KB cells assessed as inhibition of cell proliferation measured after 16 hrs by MTT assay; type: functional, cell-based
[8] = test system: HepG2; assay: Anticancer activity against human HepG2 cells assessed as inhibition of cell proliferation by MTT assay; type: functional, cell-based
[9] = test system: KM12; assay: Anticancer activity against human KM12 cells assessed as inhibition of cell proliferation measured after 72 hrs by MTT assay; type: functional, cell-based; conditions: KM12, 72 h
[10] = Selectivity index, ratio of IC50 for cytotoxicity against FHC cells to IC50 for antiproliferative activity against KM12 cells; type: toxicity, cell-based; conditions: human; read-out: Ratio IC50
[11] = test system: Ramos; assay: Anticancer activity against human Ramos cells assessed as inhibition of cell proliferation preincubated for 1 hr followed by compound addition measured after 1 hrs by Cell Titer-Glo assay; type: functional, cell-based
[12] = test system: Raji; assay: Anticancer activity against human Raji cells assessed as inhibition of cell proliferation preincubated for 1 hr followed by compound addition measured after 1 hrs by Cell Titer-Glo assay; type: functional, cell-based
[13] = target: Tyrosine-protein kinase BTK (Homo sapiens, UniProt Q06187); assay: Inhibition of human BTK using biotin as a substrate preincubated for 5 mins followed by substrate addition incubated for 30 mins in presence of ATP by fluorescence based assay
[14] = test system: Panel NCI-60 (60 carcinoma cell lines); assay: Anticancer activity against human Panel NCI-60 (60 carcinoma cell lines) assessed as inhibition of cell proliferation; type: functional
[15] = test system: MCF7; assay: Anticancer activity against human MCF7 cells assessed as inhibition of cell proliferation measured after 18 hrs by spectrophotometric analysis relative to control; type: functional
[16] = test system: HCT-116; assay: Anticancer activity against human HCT-116 cells assessed as inhibition of cell proliferation measured after 18 hrs by spectrophotometric analysis relative to control; type: functional
[17] = target: Tyrosine-protein kinase JAK2 (Homo sapiens, UniProt O60674); assay: Inhibition of human JAK2 using biotin as a substrate preincubated for 5 mins followed by substrate addition incubated for 30 mins in presence of ATP by fluorescence based assay
[18] = test system: MCF7; assay: Anticancer activity against human MCF7 cells assessed as inhibition of cell proliferation measured after 24 hrs by MTT based microplate ELISA reader analysis; type: functional; conditions: MCF7, 24 h
[19] = Inhibition of KDM (unknown origin) incubated for 30 mins in presence of ATP by ELISA assay; set-up: species or system Homo sapiens
[20] = Anticancer activity against human MINO cells assessed as inhibition of cell proliferation measured after 72 hrs by Cell Titer-Glo Luminescent; type: functional, cell-based
[21] = test system: JeKo-1; assay: Anticancer activity against human JeKo-1 cells assessed as inhibition of cell proliferation measured after 72 hrs by Cell Titer-Glo Luminescent; type: functional, cell-based; conditions: JeKo-1, 72 h
[22] = test system: Z-138; assay: Anticancer activity against human Z138 cells assessed as inhibition of cell proliferation measured after 72 hrs by Cell Titer-Glo Luminescent; type: functional, cell-based; conditions: Z-138, 72 h
[23] = test system: MCF7; assay: Anticancer activity against human MCF7 cells assessed as inhibition of cell proliferation measured after 48 hrs by MTT assay; type: functional, cell-based; conditions: MCF7, 48 h
[24] = test system: HepG2; assay: Anticancer activity against human HepG2 cells assessed as inhibition of cell proliferation measured after 72 hrs by SRB calorimetric assay; type: functional, cell-based; conditions: HepG2, 72 h
[25] = test system: MCF7; assay: Cell cycle arrest in human MCF7 cells assessed as accumulation at G2/M phase measured after 48 hrs by […] propidium iodide staining based flow cytometry analysis; type: functional; conditions: MCF7, 48 h
[26] = target: Epidermal growth factor receptor (Homo sapiens, UniProt P00533); assay: Inhibition of EGFR (unknown origin) by EGFR Kinase Assay Kit method
[27] = target: cGMP-specific 3',5'-cyclic phosphodiesterase (Homo sapiens, UniProt O76074); assay: Inhibition of PDE5 (unknown origin)
[28] = test system: HeLa; assay: Anticancer activity against human HeLa cells assessed as inhibition of cell proliferation measured after 24 hrs by MTT based microplate ELISA reader analysis; type: functional
[29] = test system: A549; assay: Anticancer activity against human A549 cells assessed as inhibition of cell proliferation measured after 48 hrs by MTT assay based microtiter plate analysis; type: functional; conditions: A549, 48 h

Sequence of Tyrosine-protein kinase JAK2 (O60674 whole entry): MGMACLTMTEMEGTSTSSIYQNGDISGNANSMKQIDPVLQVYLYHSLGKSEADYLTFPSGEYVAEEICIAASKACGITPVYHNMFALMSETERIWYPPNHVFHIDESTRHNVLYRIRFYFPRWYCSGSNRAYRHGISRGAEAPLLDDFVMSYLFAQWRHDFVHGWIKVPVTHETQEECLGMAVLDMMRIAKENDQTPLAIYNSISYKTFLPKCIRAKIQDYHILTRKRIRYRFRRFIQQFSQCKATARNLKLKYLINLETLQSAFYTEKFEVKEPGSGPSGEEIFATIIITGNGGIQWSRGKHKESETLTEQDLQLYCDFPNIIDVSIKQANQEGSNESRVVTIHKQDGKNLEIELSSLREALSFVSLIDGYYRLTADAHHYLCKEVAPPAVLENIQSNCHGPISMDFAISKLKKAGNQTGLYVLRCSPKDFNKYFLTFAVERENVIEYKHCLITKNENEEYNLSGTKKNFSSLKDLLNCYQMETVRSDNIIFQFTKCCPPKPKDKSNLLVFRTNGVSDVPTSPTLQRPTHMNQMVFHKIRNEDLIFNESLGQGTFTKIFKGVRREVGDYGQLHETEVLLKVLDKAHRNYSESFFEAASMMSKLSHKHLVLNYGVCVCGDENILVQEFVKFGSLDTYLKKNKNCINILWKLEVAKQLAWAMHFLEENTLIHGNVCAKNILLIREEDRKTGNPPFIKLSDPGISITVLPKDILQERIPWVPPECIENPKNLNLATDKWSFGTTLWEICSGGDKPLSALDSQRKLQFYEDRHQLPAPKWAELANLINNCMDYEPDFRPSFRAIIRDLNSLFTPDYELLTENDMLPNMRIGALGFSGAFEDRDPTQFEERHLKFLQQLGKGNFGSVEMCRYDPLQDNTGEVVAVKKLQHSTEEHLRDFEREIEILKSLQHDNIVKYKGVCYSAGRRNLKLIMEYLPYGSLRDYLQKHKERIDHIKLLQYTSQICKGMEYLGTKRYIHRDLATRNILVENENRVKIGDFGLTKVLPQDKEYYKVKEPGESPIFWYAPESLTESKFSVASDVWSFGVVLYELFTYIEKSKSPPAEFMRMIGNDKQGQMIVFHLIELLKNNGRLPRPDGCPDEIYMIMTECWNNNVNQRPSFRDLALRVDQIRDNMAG
Sequence of Tyrosine-protein kinase BTK (Q06187 whole entry): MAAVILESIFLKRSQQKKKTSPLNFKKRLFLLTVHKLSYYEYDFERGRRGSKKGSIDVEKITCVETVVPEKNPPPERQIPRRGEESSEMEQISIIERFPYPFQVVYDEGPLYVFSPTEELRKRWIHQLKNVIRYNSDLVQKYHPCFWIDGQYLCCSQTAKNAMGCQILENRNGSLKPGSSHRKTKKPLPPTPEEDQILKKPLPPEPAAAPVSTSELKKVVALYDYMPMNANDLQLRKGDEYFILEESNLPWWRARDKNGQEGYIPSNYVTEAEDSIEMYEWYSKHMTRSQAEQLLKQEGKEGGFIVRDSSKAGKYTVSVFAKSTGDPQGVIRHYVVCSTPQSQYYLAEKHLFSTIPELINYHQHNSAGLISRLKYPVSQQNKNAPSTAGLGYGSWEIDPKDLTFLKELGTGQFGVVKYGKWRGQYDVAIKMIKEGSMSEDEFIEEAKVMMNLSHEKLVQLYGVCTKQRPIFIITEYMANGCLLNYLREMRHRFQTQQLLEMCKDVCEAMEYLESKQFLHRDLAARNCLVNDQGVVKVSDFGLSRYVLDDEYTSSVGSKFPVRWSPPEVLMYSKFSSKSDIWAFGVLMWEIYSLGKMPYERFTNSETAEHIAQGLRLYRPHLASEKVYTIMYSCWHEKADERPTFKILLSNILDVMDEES
Sequence of Epidermal growth factor receptor (P00533 whole entry): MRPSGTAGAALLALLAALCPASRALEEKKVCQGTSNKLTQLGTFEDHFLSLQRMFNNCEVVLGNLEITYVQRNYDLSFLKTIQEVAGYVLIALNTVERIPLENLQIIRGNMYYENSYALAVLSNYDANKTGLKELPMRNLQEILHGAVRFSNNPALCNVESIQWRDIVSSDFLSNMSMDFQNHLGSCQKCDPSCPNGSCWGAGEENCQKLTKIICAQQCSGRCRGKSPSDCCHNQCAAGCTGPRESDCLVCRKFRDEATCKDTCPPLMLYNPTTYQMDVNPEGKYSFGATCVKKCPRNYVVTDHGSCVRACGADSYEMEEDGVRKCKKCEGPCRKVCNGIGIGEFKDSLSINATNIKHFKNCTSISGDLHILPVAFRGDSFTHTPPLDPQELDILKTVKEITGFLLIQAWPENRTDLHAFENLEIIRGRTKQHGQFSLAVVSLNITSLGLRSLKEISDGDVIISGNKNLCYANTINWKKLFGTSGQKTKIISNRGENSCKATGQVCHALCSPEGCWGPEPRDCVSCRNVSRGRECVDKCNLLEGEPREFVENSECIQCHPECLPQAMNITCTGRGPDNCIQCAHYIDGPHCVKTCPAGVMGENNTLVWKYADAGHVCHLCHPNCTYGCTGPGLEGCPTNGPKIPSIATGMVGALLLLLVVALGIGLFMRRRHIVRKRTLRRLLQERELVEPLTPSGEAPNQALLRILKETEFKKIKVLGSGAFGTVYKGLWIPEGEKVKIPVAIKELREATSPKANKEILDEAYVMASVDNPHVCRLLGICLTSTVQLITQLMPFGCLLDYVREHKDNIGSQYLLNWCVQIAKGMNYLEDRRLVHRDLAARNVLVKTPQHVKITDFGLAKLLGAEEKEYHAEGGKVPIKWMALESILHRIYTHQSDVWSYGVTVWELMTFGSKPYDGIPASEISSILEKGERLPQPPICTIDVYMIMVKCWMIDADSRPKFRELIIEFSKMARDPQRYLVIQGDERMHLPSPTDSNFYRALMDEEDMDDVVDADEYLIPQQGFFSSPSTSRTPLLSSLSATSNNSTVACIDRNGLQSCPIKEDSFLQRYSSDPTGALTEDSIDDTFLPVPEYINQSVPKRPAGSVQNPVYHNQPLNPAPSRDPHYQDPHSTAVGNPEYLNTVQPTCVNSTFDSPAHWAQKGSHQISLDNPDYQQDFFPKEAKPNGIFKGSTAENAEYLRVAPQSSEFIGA

Work on `Nc1ncnc2c1c(-c1ccc(Oc3ccccc3)nc1)nn2C1CCCN(C(=O)CCl)C1` (centres undefined) yielded an IC50 [1] of less than 1000 nM.

In the case of `CCNc1nn2c(-c3ccccc3)cc(=O)[nH]c2c1C(=O)Nc1ccc([N+](=O)[O-])cc1`, the IC50 [2] is reported as 1510 nM.

For `Nc1nc(Cl)c2cnn(Cc3ccc(Br)cc3F)c2n1`, the IC50 [3] was 22.4 µM and the IC50 [4] was 13.9 µM.

Work on `CCOC(=O)C1=C(C)n2nc(CC#N)c(C#N)c2NC1c1ccccc1` (centres undefined) yielded an IC50 [5] of 4.41 µM, an IC50 [6] of 8.12 µM and an IC50 [7] of 7.58 µM.

For `CCOC(=O)C1=C(C)n2nc(CC#N)c(C#N)c2NC1c1ccc(N(C)C)cc1` (centres undefined), the IC50 [5] was 9.41 µM, the IC50 [6] was 9.23 µM and the IC50 [7] was 8.31 µM.

With `CSc1c(C#N)c(N)nc2c(/N=N/N3C(=O)c4ccccc4C3=O)c(O)nn12` the IC50 [3] was 5.57 µM, the IC50 [4] was 4.17 µM and the IC50 [8] was 5.6 µg/mL (≈ 14.2 µM).

In the case of `CCOC(=O)C1=C(C)n2nc(CC#N)c(C#N)c2NC1c1cc(Br)ccc1O` (centres undefined), the IC50 [5] is reported as 9.64 µM, the IC50 [6] is reported as 5.62 µM and the IC50 [7] is reported as 6.94 µM.

`CSc1nc(-c2ccco2)c2c(N)n[nH]c2n1` showed an IC50 [9] of 1730 nM and a selectivity ratio [10] of 18.8.

`C=CC(=O)N1CCCC(N2NC(c3cc(C(C)(C)O)n(C)n3)c3c(N)ncnc32)C1` (centres undefined) gave an IC50 [11] of 8.91 µM, an IC50 [12] of 1800 nM and an IC50 [13] of 7.95 nM.

`Nc1ncnc2c1c(Cc1c[nH]c3ccccc13)nn2CC1CCNCC1` showed a GI50 [14] of 19 nM.

For `Cc1nn(-c2ccccc2)c2nc(C)n(Cc3cn(-c4ccc(Cl)cc4)nn3)c(=O)c12`, the “inhibition (INH)” value [15] was 75.4% and the “inhibition (INH)” value [16] was 75.4%.

For `Cn1nc(C2NN(C3CCCN(C(=O)CC#N)C3)c3ncnc(N)c32)cc1C(C)(C)O` (centres undefined), the IC50 [17] was 8 nM.

With `C=CC(=O)N1CCC(N2NC(c3cc(C(C)(C)O)n(C)n3)c3c(N)ncnc32)C1` (centres undefined) the IC50 [17] was 7.2 nM.

In the case of `N#Cc1c(-c2ccccc2)nn2c(-c3cccc4ccccc34)ccnc12`, the IC50 [18] is reported as 3 µM.

`Cc1cc(=O)n2nc(CC#N)c(C#N)c2[nH]1` showed an IC50 [19] of 4050 nM.

Molecule `O=C(NCc1cc(C(F)(F)F)cc(C(F)(F)F)c1)NC1CCN(c2ncnc3[nH]ncc23)CC1` has an IC50 [20] of less than 1000 nM, an IC50 [21] of less than 1000 nM and an IC50 [22] of less than 1000 nM.

In the case of `CC1=CC(C)Nc2c(C(=O)Nc3c(C)cccc3C)c(Nc3ccccc3)nn21` (centres undefined), the IC50 [23] is reported as 7.68 µM.

In the case of `Cn1nc(C2NN(C3CCCN(C(=O)CC#N)C3)c3ncnc(N)c32)cc1C=O` (centres undefined), the IC50 [17] is reported as 9.7 nM.

In the case of `Cc1cc(=O)n2nc(/C(C#N)=C\c3ccco3)c(C#N)c2[nH]1`, the IC50 [19] is reported as 1910 nM.

In the case of `CSc1nc(-c2cccs2)c2c(N)n[nH]c2n1`, the IC50 [9] is reported as 1210 nM and the selectivity ratio [10] is reported as 35.5.

With `COc1ccc(C2c3c(-c4ccccc4)n[nH]c3Nc3[nH]c(=S)[nH]c(=S)c32)cc1` (centres undefined) the IC50 [24] was 9.2 µM.

`COc1cc(/C=C(/C#N)c2nn3c(=O)cc(C)[nH]c3c2C#N)ccc1O` gave an IC50 [25] of 1910 nM and an IC50 [19] of 2310 nM.

Molecule `COc1nc2ccccc2cc1-c1nc2c(cnn2-c2ccc(Br)cc2)c(=O)[nH]1` has an IC50 [3] of 8.72 µM, an IC50 [26] of 5.83 µM and an IC50 [27] of 1570 nM. It also gave an IC50 [4] of 6.56 µM.

For `COc1ccc(-c2c(C#N)cnc3c(C#N)c(-c4ccccc4)nn23)cc1`, the IC50 [28] was 7.8 µM.

Work on `COc1cccc2c1C(=O)c1c(O)c3c(c(O)c1C2=O)C[C@@](O)(C(=O)CO)C[C@@H]3O[C@H]1C[C@H](N)[C@H](O)[C@H](C)O1` [DOXORUBICIN] yielded an IC50 [28] of 8.1 µM and an IC50 [18] of 5.9 µM.

For `C#Cc1cccc(Nc2ncnc3cc(OCCOC)c(OCCOC)cc23)c1` [ERLOTINIB], the IC50 [29] was 11.7 µM.

`O=c1[nH]cc(F)c(=O)[nH]1` [FLUOROURACIL] gave an IC50 [9] of 12300 nM and a selectivity ratio [10] of 1.93.
